Assay results published in patent US11759435B2, “Dihydrochalcone derivatives influencing inflammatory states” (SYMRISE AG, priority 2016, dated 2023).

Tested on: IL-8 release by HGF-1 cells
Experiment: Anti-inflammatory action in HGF-1 cells: IL-8 release after PG-LPS stimulation (Example TS1)
Assay type: cell-based
Conditions: Homo sapiens, co-incubation with 10 μg/ml PG-LPS, 6 h, % IL-8 release vs PG-LPS control, read-out: IL-8 T/C [%]
Method: Anti-inflammatory action in human gingival fibroblastic cells (HGF-1)
DMEM containing 10% FBS, 1% penicillin/streptomycin and 4% glutamine was used as the medium. For determination of the anti-inflammatory action the cells were incubated with 10 μg/ml PG-LPS for 6 hrs. […] In each case 4 samples with two technical replicates were measured. In addition to this control the cells were co-incubated with
(a) 10 μg/ml PG-LPS and also with
After incubation the cell culture medium was transferred into an Eppendorf reaction vessel and at 4° C. for 10 min subjected to centrifugation (1000×g) in order to separate the cell debris. The supernatant was stored at −80° C. until analysis.

Work on `O=C(CCc1ccc(O)cc1)c1c(O)cc(O)cc1O` [Compound 4] yielded an activity at 1 µM (HGF1, 1 μM test compound) of 106% and an activity at 100 µM (HGF1, 100 μM test compound) of 50%.
